Laboratory results: patent publication US20260265216A1, “NOVEL THIOREDOXIN REDUCTASE INHIBITORS” (GENEXPLAIN GMBH, priority 2021, published 2026)

Columns and labels:
Format in all cases: cell-based
[1] = tested on: cancer cells; experiment: Oxidative stress measurement (DCFH-DA, ROS)
Method: Cells were treated with compounds and incubated 30 min with 10 μM DCF-DA in serum free medium. Afterward, cells were trypsinized, washed with PBS and fluorescence was analyzed by a FACSCalibur flow cytometer (BD Biosciences) using FL1-H channel.
To get insight into the mechanism of the anti-tumor activity of 1d*HCl, we tested the level of oxidative stress upon treatment. We measured the induction of reactive oxygen species (ROS), using 2′-7′-Dichlorodihydrofluorescein diacetate (DCFH-DA)-based assay. […] After 8 h of treatment, the induction of reactive oxygen species (ROS) was much higher.

[2] = tested on: HCT116 cells; experiment: Growth suppression in the presence of antioxidant NAC; conditions: HCT116, 5 mM NAC 16 h pre-treatment; 2.5, 5, 10 μM; 24 h
Method: To find out whether oxidative stress plays a role in cancer cell death induced by 1d*HCl, we tested the extent of growth suppression by the treatment in the presence of antioxidant N-acetyl cysteine (NAC), which neutralize ROS. We pre-treated HCT116 cells with 5 mM NAC. After 16 h of incubation with NAC, we treated HCT116 cells with 2.5, 5, and 10 μM of 1d*HCl. We measured the growth suppression 24 h after treatment. […] Thus, we conclude that the mechanism of cancer cell growth suppression is dependent on the induction of oxidative stress by the compounds of the present invention.

[3] = biological target: T1, TrxR1 in HCT116 and MCF7 cells (Homo sapiens, UniProt Q16881); experiment: Detection of TrxR dimers by Western blot; conditions: 5 μM, detected as soon as 2 h
T1 construct: endogenous in cells; host or cells: MCF7; HCT116
T1 sequence (Q16881 1-499 isoform Q16881-5): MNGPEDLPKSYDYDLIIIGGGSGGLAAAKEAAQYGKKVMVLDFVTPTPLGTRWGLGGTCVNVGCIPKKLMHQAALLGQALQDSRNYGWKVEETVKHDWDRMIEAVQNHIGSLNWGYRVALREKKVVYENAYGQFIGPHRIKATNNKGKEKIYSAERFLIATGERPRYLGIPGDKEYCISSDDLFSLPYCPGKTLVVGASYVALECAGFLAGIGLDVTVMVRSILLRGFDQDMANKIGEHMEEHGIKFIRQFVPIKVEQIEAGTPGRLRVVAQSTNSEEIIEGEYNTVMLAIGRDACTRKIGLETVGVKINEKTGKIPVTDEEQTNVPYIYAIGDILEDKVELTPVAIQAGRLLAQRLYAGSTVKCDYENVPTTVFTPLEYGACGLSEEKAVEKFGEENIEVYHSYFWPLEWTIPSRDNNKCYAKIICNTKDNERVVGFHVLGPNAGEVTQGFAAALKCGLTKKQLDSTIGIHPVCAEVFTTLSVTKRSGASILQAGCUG
Method: The extraction of total cell lysates and western blot were performed according to standard procedure. The antibodies used for immunoblotting were: p53 (sc-126, Santa Cruz Biotechnology), γH2AX (#07-164, Millipore), TrxR1 19A1 (AbFrontier). Anti-β-actin monoclonal antibody (Millipore) was used as loading control. The horseradish peroxidase-coupled secondary antibodies (Jackson ImmunoResearch) and SuperSignal™ West Dura Extended Duration Substrate detection system (Thermo Fischer Scientific), and images were visualized using ChemiDoc Imaging System (Bio-Rad).
MCF7 or HCT116 cells were treated in culture with 5 or 10 μM of 1d*HCl (Example 4) in complete medium for 2 h or 6 h. For each case, duplicate drug treated samples were produced plus duplicate control treatment samples using equal volumes of the drug vehicle dimethyl sulfoxide. Detached cells from each biological replicate were washed, suspended in PBS containing protease inhibitors and cells lysed through freeze thaw cycles in liquid N2, according to the reference protocol. Soluble fraction was separated from precipitated protein by ultracentrifugation at 100000 g for 30 minutes at 4° C. and TrxR1 dimer formation was analysed using Western blot as described above. […]

## Cl.N#Cc1c(-c2cccnc2)[n+]([O-])c2cc(F)c(N3CCOCC3)cc2[n+]1[O-] [Compound 1d*HCl, 6-Fluoro-7-(morpholin-4-yl)-3-(pyridin-3-yl)quinoxaline-2-carbonitrile-1,4-dioxide hydrochloride]
[1]; 2 h after treatment
  induction of reactive oxygen species (DCF fluorescence): significant increase in DCF fluorescence
[1]; after 8 h of treatment
  induction of reactive oxygen species (ROS): much higher
[2]
  growth suppression after prevention of ROS accumulation by NAC: almost completely abolished the growth suppression
[3]
  formation of TrxR1 covalent dimers (130 kDa band): induces the formation of TrxR1 covalent dimers
